According to patent US6900217B2, “Substituted 6,5-hetero-bicyclic derivatives” (Pfizer Inc, priority 1996, dated 2005):

melting point: 123 to 125 °C
SMILES: CCC(CC)Nc1c(Br)c(CBr)nc2c1nnn2-c1c(C)cc(C)cc1C [Example 6, [6-Bromo-5-bromomethyl-3-(2,4,6-trimethyl-phenyl)-3H-[1,2,3]triazolo[4,5-b]pyridin-7-yl]-(1-ethyl-propyl)-amine]
